The numbers were not newly measured in patent US9668974B2, “Depot formulations of a local anesthetic and methods for preparation thereof” (PAINREFORM LTD., priority 2012, dated 2017), which cites them from elsewhere.

For this data set the following is noted: in vivo.

`CCCN1CCCC[C@H]1C(=O)Nc1c(C)cccc1C` [ropivacaine]: the Toxic threshold (plasma ropivacaine) was 0.6 µg/mL.
